From BindingDB's records for patent US20250026742 (Suzhou Ark Biopharmaceutical Co., 2025)

target: Serine/threonine-protein kinase ATR (Homo sapiens, UniProt Q13535); assay: ATR Enzyme Activity Inhibition Assay
Description: Prepare various buffer systems required for the experiment:1. […] Prepare detection buffer: Dilute each of the anti-phospho-p53-Eu cryptate (Cisbio, Cat #61P08KA) and anti-GST-d2 (Cisbio, Cat #61GSTDLB) to 1 unit using HTRF detection buffer (Cisbio, Cat #62SDBRDF).Powdered compounds were dissolved in DMSO to from a stock solution at a concentration of 10 mM. The solution of compounds to be tested at a concentration of […] was performed a 3-fold dilution for 10 concentrations with DMSO. […] 5 μL of ATR was added to each well accordingly. Each well is incubated at 25° C. for 10 min, added with 5 μL of reaction substrate, incubated at 25° C. for 90 min and added with 10 μL of detection solution.

Sequence of Serine/threonine-protein kinase ATR (Q13535 whole entry): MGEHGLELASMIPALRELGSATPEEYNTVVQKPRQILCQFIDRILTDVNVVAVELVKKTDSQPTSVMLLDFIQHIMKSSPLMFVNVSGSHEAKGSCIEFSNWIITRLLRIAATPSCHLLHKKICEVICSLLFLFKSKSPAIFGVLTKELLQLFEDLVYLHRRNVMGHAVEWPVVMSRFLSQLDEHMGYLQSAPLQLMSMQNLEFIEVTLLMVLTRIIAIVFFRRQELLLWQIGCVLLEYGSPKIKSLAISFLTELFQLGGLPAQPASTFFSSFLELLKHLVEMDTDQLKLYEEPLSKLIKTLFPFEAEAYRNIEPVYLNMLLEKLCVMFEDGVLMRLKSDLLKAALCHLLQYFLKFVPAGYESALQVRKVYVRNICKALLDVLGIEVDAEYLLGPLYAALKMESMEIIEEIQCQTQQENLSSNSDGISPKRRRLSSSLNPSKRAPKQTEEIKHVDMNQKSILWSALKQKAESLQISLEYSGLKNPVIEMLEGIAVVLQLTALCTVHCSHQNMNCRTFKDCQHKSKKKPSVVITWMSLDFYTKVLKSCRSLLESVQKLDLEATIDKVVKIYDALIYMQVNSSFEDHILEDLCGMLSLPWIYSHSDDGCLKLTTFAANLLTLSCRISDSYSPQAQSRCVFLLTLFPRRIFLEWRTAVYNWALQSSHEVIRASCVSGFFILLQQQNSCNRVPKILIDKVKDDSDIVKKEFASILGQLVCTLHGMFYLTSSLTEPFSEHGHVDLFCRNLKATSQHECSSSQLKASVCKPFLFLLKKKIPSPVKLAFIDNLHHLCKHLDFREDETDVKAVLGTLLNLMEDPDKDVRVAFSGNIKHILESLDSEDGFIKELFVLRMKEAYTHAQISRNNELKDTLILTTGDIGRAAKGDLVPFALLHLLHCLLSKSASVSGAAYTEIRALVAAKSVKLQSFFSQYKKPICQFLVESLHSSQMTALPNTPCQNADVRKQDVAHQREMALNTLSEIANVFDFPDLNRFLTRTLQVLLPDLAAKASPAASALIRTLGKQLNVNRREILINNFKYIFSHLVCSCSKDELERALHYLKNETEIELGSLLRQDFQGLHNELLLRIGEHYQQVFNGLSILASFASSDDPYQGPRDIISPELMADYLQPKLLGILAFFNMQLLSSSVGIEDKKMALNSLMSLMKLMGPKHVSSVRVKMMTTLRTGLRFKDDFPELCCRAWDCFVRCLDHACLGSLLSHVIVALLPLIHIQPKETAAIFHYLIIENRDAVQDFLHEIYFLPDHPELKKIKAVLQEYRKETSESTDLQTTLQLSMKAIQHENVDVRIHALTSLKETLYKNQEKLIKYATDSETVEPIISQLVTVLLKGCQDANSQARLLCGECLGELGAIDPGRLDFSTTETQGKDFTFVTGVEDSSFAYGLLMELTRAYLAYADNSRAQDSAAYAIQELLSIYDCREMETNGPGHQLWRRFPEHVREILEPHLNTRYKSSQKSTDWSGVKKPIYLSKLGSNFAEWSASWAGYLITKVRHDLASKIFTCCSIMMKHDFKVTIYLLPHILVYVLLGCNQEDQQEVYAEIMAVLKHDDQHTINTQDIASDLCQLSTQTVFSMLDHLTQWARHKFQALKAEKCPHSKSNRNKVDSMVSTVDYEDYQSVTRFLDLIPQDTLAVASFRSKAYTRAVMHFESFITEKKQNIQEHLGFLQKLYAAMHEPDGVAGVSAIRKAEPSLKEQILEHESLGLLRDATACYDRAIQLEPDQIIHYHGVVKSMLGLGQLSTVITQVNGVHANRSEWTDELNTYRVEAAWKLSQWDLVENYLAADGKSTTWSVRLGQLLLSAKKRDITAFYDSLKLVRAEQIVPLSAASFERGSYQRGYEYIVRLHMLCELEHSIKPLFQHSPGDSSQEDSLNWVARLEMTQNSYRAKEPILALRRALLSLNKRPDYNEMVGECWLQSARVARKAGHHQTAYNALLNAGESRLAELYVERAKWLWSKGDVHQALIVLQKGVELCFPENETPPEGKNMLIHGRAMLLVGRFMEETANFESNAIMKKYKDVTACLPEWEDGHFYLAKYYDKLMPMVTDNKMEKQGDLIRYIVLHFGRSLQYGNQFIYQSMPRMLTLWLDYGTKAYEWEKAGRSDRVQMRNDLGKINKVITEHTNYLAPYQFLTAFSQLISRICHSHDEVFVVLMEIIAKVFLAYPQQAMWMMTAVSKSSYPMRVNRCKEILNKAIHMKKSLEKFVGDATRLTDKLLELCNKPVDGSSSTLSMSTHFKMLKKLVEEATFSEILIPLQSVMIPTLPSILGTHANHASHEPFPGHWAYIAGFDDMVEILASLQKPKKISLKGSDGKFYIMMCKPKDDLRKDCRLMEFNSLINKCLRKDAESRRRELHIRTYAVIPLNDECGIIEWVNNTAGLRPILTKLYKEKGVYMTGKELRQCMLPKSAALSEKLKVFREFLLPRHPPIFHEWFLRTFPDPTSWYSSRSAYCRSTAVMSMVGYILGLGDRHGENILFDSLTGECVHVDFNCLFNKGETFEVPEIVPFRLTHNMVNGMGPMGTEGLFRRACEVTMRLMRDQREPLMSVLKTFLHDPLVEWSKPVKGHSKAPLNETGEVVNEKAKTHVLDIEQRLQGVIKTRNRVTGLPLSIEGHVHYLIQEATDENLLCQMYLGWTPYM

IC50 | Structure (SMILES)
2.53 nM | CN=S(C)(=O)c1ccc(-c2cnc(N)c(-c3cc(-c4ccc(CNC(=N)N)cc4)no3)n2)cc1 (stereo not drawn) [US20250026742, Example 12]
3.12 nM | CC(=N)Nc1ccc(-c2cc(-c3nc(-c4ccc(S(=O)(=O)C(C)C)cc4)cnc3N)on2)cc1 [US20250026742, Example 29]

Structure (SMILES) | IC50
CC(C)S(=O)(=O)c1ccc(-c2cnc(N)c(-c3cc(-c4ccc(CNC(N)=O)cc4)no3)n2)cc1 [US20250026742, Example 9] | 1.83 nM
